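These data come from cells grown in 96-well plates and exposed to compound for 48 hours at five concentrations. GI50 = concentration required for 50% inhibition of growth.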 Active and inactive are the calls of the source. No stated cut-off is given here; in the data, active = GI50 up to about 1.1 µM and inactive = higher.
Experiments:
Assay in all cases: inhibition of tumour cell growth, NCI panel, 48 h
[1] = system: HCC 2998
[2] = system: RXF 393
[3] = system: U-251
[4] = system: K562
[5] = system: CCRF-CEM
[6] = system: SNB-75
[7] = system: SF-295
[8] = system: COLO 205
[9] = system: SNB-19
[10] = system: UO-31
[11] = system: TK-10
[12] = system: SK-OV-3
[13] = system: LOX IMVI
[14] = system: EKVX
[15] = system: A549
[16] = system: MOLT-4
[17] = system: SF-539
[18] = system: HCT-116
[19] = system: ACHN
[20] = system: RPMI-8226

Measured: GI50

Cc1nc2c(n1CC(C)(C)C)C(=O)c1ccccc1C2=O
inactive: [1] > 100 µM | [2] > 100 µM | [3] > 100 µM | [4] 56 µM | [5] > 100 µM | [6] > 100 µM | [7] > 100 µM | [8] > 100 µM | [9] > 100 µM | [10] > 100 µM | [11] > 100 µM | [12] > 100 µM | [13] 55.6 µM | [14] > 100 µM | [15] > 100 µM | [16] 91.2 µM | [17] > 100 µM | [18] 79.3 µM | [19] > 100 µM

Cc1nc(Nc2ccccc2)sc1C(=O)CC(=O)C(=O)NC12CC3CC(CC(C3)C1)C2
inactive: [1] > 100 µM | [2] 54.6 µM | [3] > 100 µM | [4] > 100 µM | [5] 82.4 µM | [6] 33.9 µM | [7] 71.3 µM | [8] > 100 µM | [9] > 100 µM | [10] 92.3 µM | [11] > 100 µM | [12] > 100 µM | [13] 50.4 µM | [14] 7.21 µM | [15] > 100 µM | [16] > 100 µM | [17] > 100 µM | [18] > 100 µM | [19] > 100 µM

COC(=O)[C@@H]1C[C@H]2[C@H](c3ccccc3Br)[C@@H](OC(C)=O)[C@@H](OCc3ccccc3)ON2O1
inactive: [1] 51.9 µM | [2] > 100 µM | [3] > 100 µM | [4] > 100 µM | [5] 49.4 µM | [6] > 100 µM | [7] > 100 µM | [8] > 100 µM | [9] > 100 µM | [10] > 100 µM | [11] > 100 µM | [12] > 100 µM | [13] > 100 µM | [14] > 100 µM | [15] > 100 µM | [16] 45.3 µM | [17] > 100 µM | [18] > 100 µM | [19] > 100 µM

COC(=O)C(I(OS(=O)(=O)c1ccc(C)cc1)c1ccccc1)=P(c1ccccc1)(c1ccccc1)c1ccccc1
inactive: [1] 19.2 µM | [2] 20.5 µM | [3] 20.7 µM | [4] 12.7 µM | [5] 10.3 µM | [7] 30.1 µM | [20] 5.04 µM | [8] 3.13 µM | [9] 33.9 µM | [10] 22.2 µM | [11] 23.6 µM | [12] 25.1 µM | [14] 23.7 µM | [15] 24.5 µM | [16] 20.7 µM | [17] 19.4 µM | [18] 16.3 µM | [19] 16.6 µM
